Calls of active or inactive are those of the source. The rule behind the calls is not given here.
Target: T1, Retinoic acid receptor RXR-beta (Homo sapiens) (UniProt P28702)
T1 sequence (whole entry): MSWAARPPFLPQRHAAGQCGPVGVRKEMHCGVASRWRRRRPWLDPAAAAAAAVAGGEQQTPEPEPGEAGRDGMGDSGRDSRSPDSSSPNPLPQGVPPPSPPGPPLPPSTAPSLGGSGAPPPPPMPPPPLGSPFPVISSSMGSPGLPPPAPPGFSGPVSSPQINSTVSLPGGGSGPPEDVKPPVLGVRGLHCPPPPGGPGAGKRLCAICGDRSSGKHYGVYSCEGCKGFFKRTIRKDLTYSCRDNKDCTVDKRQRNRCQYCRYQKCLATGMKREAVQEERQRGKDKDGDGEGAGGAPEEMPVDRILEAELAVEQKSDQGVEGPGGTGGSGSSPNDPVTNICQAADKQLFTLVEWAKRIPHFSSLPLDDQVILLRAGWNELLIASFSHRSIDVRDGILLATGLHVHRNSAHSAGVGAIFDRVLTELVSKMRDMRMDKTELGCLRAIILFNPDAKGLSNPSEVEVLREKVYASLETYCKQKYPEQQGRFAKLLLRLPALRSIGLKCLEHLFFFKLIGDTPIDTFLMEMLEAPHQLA
Experiment: Agonist activity at human RXRbeta expressed in human HeLa cells assessed as relative luminescence units by luciferase assay relative to control
Format: functional, cell-based

CC(=C/C=C/C(C)=C/C(=O)O)/C=C/C1=C[C@H](C)CC[C@H]1C(C)C
Activity: Active
